# Assay results reported in patent US20100087546A1, “USE OF DIMETHYL SULFONE (MSM) TO REDUCE HO[…]” (BIOGENIC INNOVATIONS, LLC, priority 2005, published 2010).
# Entries after “also recorded” stand apart in the source; their conditions may differ.
# Legend:
# Type in all cases: in vivo, human
# homocysteine = test: Serum homocysteine measured at baseline and 12 weeks in the 2005 osteoarthritis study; settings: 6 g/day, baseline versus 12 weeks, FIG. 2
# From the text: (§1) In 2005, Applicant commissioned a study to determine the efficacy of dimethyl sulfone in the treatment of pain and physical function impairment due to osteoarthritis. The results of the study are published in Kim, et al, Efficacy of methylsulfonylmethane (MSM) in osteoarthritis pain of the knee: a pilot clinical trial. OsteoArthritis and Cartilage, herein incorporated by reference in its entirety. Patients were given dosage of 6 g of dimethyl sulfone (Distilled MSM microprill (OptiMSM®, Cardinal Nutrition, Vancouver, Wash.)) per day in a stepwise approach. In week 1, dosages started with 2 g/day in two divided doses for 3 days, and then increased to 4 g/day for 4 days. Week 2, increased to 6 g/day. In the control group, a placebo was administered that consisted of inert ingredients and that was indistinguishable in color, size and taste from the dimethyl sulfone.
# (§2) During the 2005 osteoarthritis study, described above, dimethyl sulfone's potential activities were also evaluated. Serum homocysteine, high sensitive C-reactive protein (CRP), erythrocyte sedimentation rate (ESR), and urine malondialdehyde (MDA) were measured at baseline and 12 weeks.
# Since dimethyl sulfone is a putative methyl donor, it was believed that dimethyl sulfone may act as a co-factor in reducing homocysteine levels. […]
# [1] = 2008 acute oral dosing study, pharmacokinetic blood draws (serum dimethyl sulfone levels)
# Description: In a study directed by Applicant or its related affiliate in 2008, six participants received three doses of dimethyl sulfone at three acute test visits spaced one week apart. Subjects were monitored for four hours post dose, with pharmacokinetic (PK) and phamacodynamic blood draws at 0, 45, 90, 135, 180 and 240 minutes post dosing. Subjects also provided a 24-hour post-dose urine collection for assay of dimethyl sulfone and sulfate levels.
# Rough estimates have been obtained for the half times of absorption (½ hour) and elimination (8 hours).
# malondialdehyde (MDA) = test: Urine malondialdehyde (MDA) measured at baseline and 12 weeks in the 2005 osteoarthritis study; settings: 6 g/day, baseline versus 12 weeks
# From the text: as §1, §2
# The combined decreases in homocysteine and urine MDA during the 2005 osteoarthritis study supports the role of dimethyl sulfone in metabolic processes requiring methylation, such as antioxidant capacities. […]
# [2] = system: osteoarthritis pain of the knee; test: 12-week randomized, double-blind, placebo-controlled trial in osteoarthritis of the knee (WOMAC pain and physical function); settings: 3 g twice a day (6 g/day) for 12 weeks, oral, OA of the knee, versus placebo
# From the text: as §1
# In a study directed by Applicant or its related affiliate, and as reported in Kim et al (published in 2006), herein incorporated by reference in its entirety, the effects of dimethyl sulfone on OA of the knee were evaluated. Qualified patients (n=50) were as-signed to MSM (n=25) or placebo (n=25) in a 12-week randomized, double-blind, placebo-controlled trial using computer-generated random numbers (FIG. 1).
# At week 1, subjects were administered 2 g/day in two divided doses for 3 days, and then increased to 4 g/day for 4 days. […]
# [3] = blood draws 0-240 minutes post dosing
# [4] = six participants, rough estimate
substance,measurement,setting,value
dimethyl sulfone,serum homocysteine levels,homocysteine,significantly decreased; also recorded: decreases
same,absorption from the upper gastrointestinal tract (serum level pattern),[1]; [3],fairly rapid absorption from the upper gastrointestinal tract (within an hour)
same,elimination from the bloodstream (serum level pattern),[1]; [3],slower elimination from the bloodstream (over the course of one or two days)
same,half time of absorption,[1]; [4],½
same,half time of elimination,[1]; [4],~8 h
same,urine MDA,malondialdehyde (MDA),decreases
same,symptoms of pain and physical function (WOMAC subscales),[2],"produced improvement in two of the three WOMAC subscales, pain and physical function"
same,symptoms of pain and physical function (WOMAC subscales),[2]; listed as dimethyl sulfone,improved symptoms of pain and physical function
